This passage reports IC50 results from patent US20240092784A1, “CONDENSED HETEROCYCLIC COMPOUND” (NISSAN CHEMICAL CORPORATION, priority 2020, published 2024).

Each structure is given as a SMILES string.

Chain of human SPR (P35270 whole entry): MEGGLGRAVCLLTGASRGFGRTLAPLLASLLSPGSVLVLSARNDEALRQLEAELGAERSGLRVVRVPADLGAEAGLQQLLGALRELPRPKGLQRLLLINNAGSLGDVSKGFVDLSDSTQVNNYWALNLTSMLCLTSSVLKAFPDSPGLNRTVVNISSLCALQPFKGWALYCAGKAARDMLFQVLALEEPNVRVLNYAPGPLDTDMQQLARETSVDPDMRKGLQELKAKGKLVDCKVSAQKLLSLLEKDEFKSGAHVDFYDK

The target of the first assay is human SPR (Homo sapiens (Human), UniProt P35270). Nature of the assay: Evaluation Example 2: Measurement of human SPR inhibitory activity (seven concentrations, sepiapterin absorbance at 420 nm). The class given is biochemical. Particulars: Evaluation Example 2, seven concentrations 0.14 nM to 100 nM, 240 minutes at room temperature, read-out: IC50. In a few lines:
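Reactions ran 240 min at room temperature in 100 mM Tris-HCl pH 7.5 with 0.01% BSA. They contained tag-cleaved, E. coli-expressed full-length human SPR (diluted to 150 ng/mL), seven compound concentrations from 0.14 to 100 nM, and sepiapterin/NADPH added as a 120 μM/160 μM solution. Inhibition was calculated from sepiapterin absorbance at 420 nm.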
With `Cn1ccc(Nc2cc3n(CC(C)(C)C)c(=O)c(C(=O)NC4CC4)c(O)n3n2)n1` [Synthesis Example 346, N-Cyclopropyl-7-hydroxy-2-((1-methyl-1H-pyrazol-3-yl)amino)-4-neopentyl-5-oxo-4,5-dihydropyrazolo[1,5-a]pyrimidine-6-carboxamide], the IC50 is 1.77 nM.

Consider `Cc1nn2c(O)c(C(=O)NC3CC3)c(=O)n(CC(C)C)c2c1/C=C/C(=O)N1CC[C@H](F)C1` [compound 566, (S,E)-N-Cyclopropyl-3-(3-(3-fluoropyrrolidin-1-yl)-3-oxoprop-1-en-1-yl)-7-hydroxy-4-isobutyl-2-methyl-5-oxo-4,5-dihydropyrazolo[1,5-a]pyrimidine-6-carboxamide], for which the IC50 came out at 0.94 nM.

With `CO[C@H]1CCN(C(=O)/C=C/c2c(C)nn3c(O)c(C(=O)NC4CC4)c(=O)n(CC(C)C)c23)C1` [compound 577, (S,E)-N-Cyclopropyl-7-hydroxy-4-isobutyl-3-(3-(3-methoxypyrrolidin-1-yl)-3-oxoprop-1-en-1-yl)-2-methyl-5-oxo-4,5-dihydropyrazolo[1,5-a]pyrimidine-6-carboxamide], the IC50 was determined as 1.1 nM.

In the case of `CCN(C)C(=O)/C=C/c1cnn2c(O)c(C(=O)NC3CC3)c(=O)n(CC(C)C)c12` [compound 522, (E)-N-Cyclopropyl-3-(3-(ethyl(methyl)amino)-3-oxoprop-1-en-1-yl)-7-hydroxy-4-isobutyl-5-oxo-4,5-dihydropyrazolo[1,5-a]pyrimidine-6-carboxamide], the IC50 stood at 0.78 nM.

Regarding `CC(C)Cn1c(=O)c(C(=O)NC2CC2)c(O)n2ncc(/C=C/C(=O)N3CCC[C@H]3C)c12` [compound 536, (R,E)-N-Cyclopropyl-7-hydroxy-4-isobutyl-3-(3-(2-methylpyrrolidine-1-yl)-3-oxoprop-1-en-1-yl)-5-oxo-4,5-dihydropyrazolo[1,5-a]pyrimidine-6-carboxamide], the IC50 came to 0.92 nM.

Turning to `CC1(Cn2c(=O)c(C(=O)NC3CC3)c(O)n3ncc(/C=C/C(=O)N4C[C@@H]5C[C@H]4CO5)c23)CC1` [Synthesis Example 374], the IC50 was 0.65 nM.

For the compound `CC(C)Cn1c(=O)c(C(=O)NC2CC2)c(O)n2ncc(/C=C/C(=O)N3CC[C@H](O)C3)c12` [compound 501, (S,E)-N-Cyclopropyl-7-hydroxy-3-(3-(3-hydroxypyrrolidin-1-yl)-3-oxoprop-1-en-1-yl)-4-isobutyl-5-oxo-4,5-dihydropyrazolo[1,5-a]pyrimidine-6-carboxamide], the IC50 amounted to 0.71 nM.

Consider `O=C(NC1CC1)c1c(O)n2ncc(/C=C/C(=O)N3C4CCC3COC4)c2n(CC2(F)CC2)c1=O` [Synthesis Example 376, (E)-3-(3-(3-Oxa-8-azabicyclo[3.2.1]octan-8-yl)-3-oxoprop-1-en-1-yl)-N-cyclopropyl-4-((1-fluorocyclopropyl)methyl)-7-hydroxy-5-oxo-4,5-dihydropyrazolo[1,5-a]pyrimidine-6-carboxamide], for which the IC50 was 0.72 nM.

`Cc1nn2c(O)c(C(=O)NC3CC3)c(=O)n(CC(C)C)c2c1/C=C/C(=O)N1CCOC[C@@H]1C` [compound 568, (S,E)-N-Cyclopropyl-7-hydroxy-4-isobutyl-2-methyl-3-(3-(3-methylmorpholino)-3-oxoprop-1-en-1-yl)-5-oxo-4,5-dihydropyrazolo[1,5-a]pyrimidine-6-carboxamide]: the IC50 came out at 0.68 nM.

On to `CC(C)Cn1c(=O)c(C(=O)NC2CC2)c(O)n2ncc(/C=C/C(=O)N3[C@@H](C)CC[C@@H]3C)c12` [compound 591, N-Cyclopropyl-3-((E)-3-((2S,5S)-2,5-dimethylpyrrolidin-1-yl)-3-oxoprop-1-en-1-yl)-7-hydroxy-4-isobutyl-5-oxo-4,5-dihydropyrazolo[1,5-a]pyrimidine-6-carboxamide], for which the IC50 amounted to 1.29 nM.

In the case of `CC(Cn1c(=O)c(C(=O)NC2CC2)c(O)n2ncc(/C=C/C(=O)N3CCOCC3)c12)C(F)(F)F` (single isomer, unassigned) [Synthesis Example 389, (E)-N-Cyclopropyl-7-hydroxy-3-(3-morpholino-3-oxoprop-1-en-1-yl)-5-oxo-4-(3,3,3-trifluoro-2-methylpropyl)-4,5-dihydropyrazolo[1,5-a]pyrimidine-6-carboxamide], the IC50 was found to be 0.95 nM.

Turning to `COC[C@@H]1COCCN1C(=O)/C=C/c1cnn2c(O)c(C(=O)NC3CC3)c(=O)n(CC3(C)CC3)c12` [Synthesis Example 372, (R,E)-N-Cyclopropyl-7-hydroxy-3-(3-(3-(methoxymethyl)morpholino)-3-oxoprop-1-en-1-yl)-4-((1-methylcyclopropyl)methyl)-5-oxo-4,5-dihydropyrazolo[1,5-a]pyrimidine-6-carboxamide], the IC50 was determined as 0.55 nM.

On to `CC(C)Cn1c(=O)c(C(=O)NC2CC2)c(O)n2ncc(/C=C/C(=O)N3CCOCC34CC4)c12` [compound 541, (E)-N-Cyclopropyl-7-hydroxy-4-isobutyl-5-oxo-3-(3-oxo-3-(7-oxa-4-azaspiro[2.5]octan-4-yl)prop-1-en-1-yl)-4,5-dihydropyrazolo[1,5-a]pyrimidine-6-carboxamide], for which the IC50 worked out at 0.82 nM.

As for `Cc1nn2c(O)c(C(=O)NC3CC3)c(=O)n(CC(C)C)c2c1/C=C/C(=O)N1C[C@@H](F)[C@@H](F)C1` [Synthesis Example 648, N-Cyclopropyl-3-((E)-3-(cis-3,4-difluoropyrrolidin-1-yl)-3-oxoprop-1-en-1-yl)-7-hydroxy-4-isobutyl-2-methyl-5-oxo-4,5-dihydropyrazolo[1,5-a]pyrimidine-6-carboxamide], the IC50 worked out at 0.74 nM.

In the case of `CC(C)Cn1c(=O)c(C(=O)NC2CC2)c(O)n2ncc(/C=C/C(=O)N3CC[C@H](C(C)(C)O)C3)c12` [compound 598, (S,E)-N-Cyclopropyl-7-hydroxy-3-(3-(3-(2-hydroxypropan-2-yl)pyrrolidin-1-yl)-3-oxoprop-1-en-1-yl)-4-isobutyl-5-oxo-4,5-dihydropyrazolo[1,5-a]pyrimidine-6-carboxamide], the IC50 worked out at 1.2 nM.

Consider `Cc1noc(C)c1/C=C/c1cnn2c(O)c(C(=O)NC3CC3)c(=O)n(CC(C)C)c12` [Synthesis Example 238, (E)-N-Cyclopropyl-3-(2-(3,5-dimethylisoxazol-4-yl)vinyl)-7-hydroxy-4-isobutyl-5-oxo-4,5-dihydropyrazolo[1,5-a]pyrimidine-6-carboxamide], for which the IC50 was 0.89 nM.

For `CC(C)(C)Cn1c(=O)c(C(=O)NC2CC2)c(O)n2nc3c(c12)CN(C1CC(F)(F)C1)C(=O)N3` [Synthesis Example 410, N-Cyclopropyl-3-(3,3-difluorocyclobutyl)-8-hydroxy-5-neopentyl-2,6-dioxo-1,2,3,4,5,6-hexahydropyrazolo[1,5-a:3,4-d′]dipyrimidine-7-carboxamide], the IC50 was determined as 1.5 nM.

With `CC(C)Cn1c(=O)c(C(=O)NCC(F)(F)F)c(O)n2nc(Nc3cnccn3)cc12` [Synthesis Example 348, 7-Hydroxy-4-isobutyl-5-oxo-2-(pyrazin-2-ylamino)-N-(2,2,2-trifluoroethyl)-4,5-dihydropyrazolo[1,5-a]pyrimidine-6-carboxamide], the IC50 is 2.84 nM.

Turning to `CC(C)(C)Cn1c(=O)c(C(=O)NC2CC2)c(O)n2nc3ncccc3c12` [Synthesis Example 391, N-Cyclopropyl-4-hydroxy-1-neopentyl-2-oxo-1,2-dihydropyrido[2′,3′:3,4]pyrazolo[1,5-a]pyrimidine-3-carboxamide], the IC50 is 0.92 nM.

Regarding `CC(C)Cn1c(=O)c(C(=O)NC2CC2)c(O)n2ncc(/C=C/C(=O)N3CCC3)c12` [compound 553, (E)-3-(3-(Azetidin-1-yl)-3-oxoprop-1-en-1-yl)-N-cyclopropyl-7-hydroxy-4-isobutyl-5-oxo-4,5-dihydropyrazolo[1,5-a]pyrimidine-6-carboxamide], the IC50 is 0.99 nM.

Staying with this assay, now noted: sepiapterin absorbance, Table 41, read-out: concentration at 50% inhibition of human SPR (IC50).
With `Cc1nn2c(O)c(C(=O)NC3CC3)c(=O)n(CC(C)(C)F)c2c1/C=C/C(=O)N1CCOCC1` [Synthesis Example 747, (E)-N-Cyclopropyl-4-(2-fluoro-2-methylpropyl)-7-hydroxy-2-methyl-3-(3-morpholino-3-oxoprop-1-en-1-yl)-5-oxo-4,5-dihydropyrazolo[1,5-a]pyrimidine-6-carboxamide], the IC50 was determined as 0.74 nM.

`CC(C)Cn1c(=O)c(C(=O)NC2CC2)c(O)n2ncc(/C=C/C(=O)N3CCc4cnccc43)c12` [Synthesis Example 740, (E)-N-Cyclopropyl-3-(3-(2,3-dihydro-1H-pyrrolo[3,2-c]pyridin-1-yl)-3-oxoprop-1-en-1-yl)-7-hydroxy-4-isobutyl-5-oxo-4,5-dihydropyrazolo[1,5-a]pyrimidine-6-carboxamide]: the IC50 came to 1.81 nM.

Take `CC(C)Cn1c(=O)c(C(=O)NC2CC2)c(O)n2ncc(/C=C/C(=O)N(C)Cc3cnccn3)c12` [Synthesis Example 709, (E)-N-Cyclopropyl-7-hydroxy-4-isobutyl-3-(3-(methyl(pyrazin-2-ylmethyl)amino)-3-oxoprop-1-en-1-yl)-5-oxo-4,5-dihydropyrazolo[1,5-a]pyrimidine-6-carboxamide]: the IC50 stood at 0.85 nM.

As for `CC(=O)N1CCC2(CCCN2C(=O)/C=C/c2cnn3c(O)c(C(=O)NC4CC4)c(=O)n(CC(C)C)c23)CC1` [Synthesis Example 737, (E)-3-(3-(8-Acetyl-1,8-diazaspiro[4.5]decan-1-yl)-3-oxoprop-1-en-1-yl)-N-cyclopropyl-7-hydroxy-4-isobutyl-5-oxo-4,5-dihydropyrazolo[1,5-a]pyrimidine-6-carboxamide], the IC50 was 1.9 nM.

As for `COC[C@@H]1COCCN1C(=O)/C=C/c1c(C)nn2c(O)c(C(=O)NC3CC3)c(=O)n(CC(C)C)c12` [Synthesis Example 682, (R,E)-N-Cyclopropyl-7-hydroxy-4-isobutyl-3-(3-(3-(methoxymethyl)morpholino)-3-oxoprop-1-en-1-yl)-2-methyl-5-oxo-4,5-dihydropyrazolo[1,5-a]pyrimidine-6-carboxamide], the IC50 was found to be 0.85 nM.
